Assay results reported in ChEMBL document CHEMBL4819103, “Discovery of selective fragment-sized immunoproteasome inhibitors” (Eur J Med Chem, 2021).

target: T1, Proteasome subunit beta type-8 (Homo sapiens, UniProt P28062); test: Inhibition of human chymotrypsin-like beta 5i subunit of iCP using suc-LLVY-AMC as flurogenic substrate for 90 mins by fluorescence-based assay
T1 sequence (P28062 whole entry): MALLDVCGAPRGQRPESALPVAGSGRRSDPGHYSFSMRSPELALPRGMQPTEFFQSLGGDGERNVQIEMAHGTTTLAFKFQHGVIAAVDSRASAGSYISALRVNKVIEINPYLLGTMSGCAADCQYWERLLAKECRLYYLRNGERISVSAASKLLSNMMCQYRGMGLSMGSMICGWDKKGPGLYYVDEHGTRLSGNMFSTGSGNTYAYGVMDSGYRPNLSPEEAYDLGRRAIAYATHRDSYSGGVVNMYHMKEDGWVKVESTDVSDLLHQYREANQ

Structure (SMILES)	IC50 [µM]
S=c1[nH]c2cccc(Br)c2s1	11
Cn1c(=S)[nH]c2ccc(NC(=O)[C@H]3CCCN3)cc21	109
CCOc1ccc2nc(S)sc2c1	9
N#Cc1nc2cccc(Cl)c2o1	10
O=C(Nc1cccc2[nH]c(=S)oc12)c1ccccc1	129
N#Cc1nc2cccc(Cl)c2s1	18
N#Cc1nc2cccc(Cl)c2[nH]1	75
Sc1nc2ccccc2s1 [2-MERCAPTOBENZOTHIAZOLE]	13
Cc1ccc2[nH]c(=S)oc2c1	30
Oc1cccc2oc(S)nc12	4.1
COc1cccc2oc(=S)[nH]c12	81
O=C(CCc1cccnc1)Nc1ccc2[nH]c(=S)sc2c1	26
N#Cc1nc2ccc(Cl)cc2[nH]1	28
O=C(Cc1cccnc1)Nc1ccc2[nH]c(=S)sc2c1	15
S=c1[nH]c2c(Cl)cccc2o1	36
COc1ccc2[nH]c(=S)sc2c1	13
Cn1c(S)nc2ccccc21	94
Cn1c(C#N)nc2cccc(Cl)c21	20
O=C(Nc1ccc2[nH]c(=S)oc2c1)c1ccccc1	49
Sc1nc2cc(Cl)ccc2o1	96
Sc1nc2cc(Cl)ccc2[nH]1	62
COc1ccc2sc(=S)[nH]c2c1	7.2

Structure (SMILES)	IC50 [µM]
S=c1[nH]c2cccc(Cl)c2o1	16
CC(=O)Nc1ccc2[nH]c(=S)n(C)c2c1	149
Cn1c(=S)[nH]c2cccc(Cl)c21	1.8
S=c1[nH]c2cccc(Cl)c2s1	9.7
Nc1cccc2[nH]c(=S)oc12	79
S=c1[nH]c2c(Cl)cccc2s1	43
O=[N+]([O-])c1ccc2oc(=S)[nH]c2c1	9
Cn1c(S)nc2ccc(Cl)cc21	4.2
N#Cc1nc2c(Cl)cccc2s1	85
Sc1nc2cc(Cl)ccc2s1	32
Nc1ccc2[nH]c(=S)oc2c1	27
Sc1nc2ccccc2[nH]1 [2-MERCAPTOBENZIMIDAZOLE]	114
CC(=O)Nc1ccc2[nH]c(=S)sc2c1	130
Sc1nc2ccccc2o1	17
S=c1[nH]c2cccc(Cl)c2[nH]1	60
N#Cc1nc2ccccc2o1	83
O=C(Nc1ccc2[nH]c(=S)sc2c1)[C@H]1CCCN1	95
O=C(Nc1ccc2nc(S)sc2c1)c1ccccc1	7.1
S=c1[nH]c2ccc(Cl)cc2o1	65
O=C(Cc1cccnc1)Nc1cccc2[nH]c(=S)oc12	156
COC(=O)c1ccc2[nH]c(=S)oc2c1	3
N#Cc1nc2cc(Cl)ccc2o1	67

target: T2, Proteasome subunit beta type-8 (Homo sapiens) (UniProt P28062); test: Inhibition of human chymotrypsin-like beta 5i subunit of iCP assessed as residual activity using suc-LLVY-AMC as flurogenic substrate at 100 uM for 90 mins by fluorescence-based assay
T2 sequence (whole entry): T1 sequence (P28062 whole entry)

Structure (SMILES)	Activity [%]
C=CC(=O)Nc1nc2ccccc2n1C	83
N#Cc1cccc(-c2cccc3[nH]c(=S)sc23)c1	70
Cn1c(=S)[nH]c2cccc(NC(=O)CCc3cccnc3)c21	92
CC(=O)Nc1ccc2[nH]c(=S)oc2c1	63
N#Cc1nc2ccc(Cl)cc2s1	58
O=C(Nc1ccc2[nH]c(=S)oc2c1)[C@H]1CCCN1	65
C=CC(=O)Nc1nc2ccccc2s1	44
S=c1[nH]c2cccc(Br)c2[nH]1	87
N#Cc1nc2ccccc2[nH]1	89
Cn1c(=S)[nH]c2ccc(NC(=O)CCc3cccnc3)cc21	72
CS(=O)(=O)c1nc2ccccc2s1	88
Cn1c(C#N)nc2ccc(Cl)cc21	50
Cn1c(C#N)nc2ccccc21	99
Cn1c(=S)[nH]c2ccc(NC(=O)Cc3cccnc3)cc21	89
N#Cc1nc2ccccc2s1	61
O=C(CCc1cccnc1)Nc1ccc2[nH]c(=S)oc2c1	56

Structure (SMILES)	Activity [%]
COc1ccc2oc(=S)[nH]c2c1	59
Cc1ccc2sc(=S)[nH]c2c1	56
C=CS(=O)(=O)c1nc2ccccc2s1	40
S=c1[nH]c2cccc(-c3ccccc3)c2s1	54
O=[N+]([O-])c1ccc2sc(=S)[nH]c2c1	58
Cn1c(=S)[nH]c2cccc(NC(=O)Cc3cccnc3)c21	94
Cn1c(=S)[nH]c2cccc(N)c21	63
Nc1ccc2nc(S)sc2c1	80
Cn1c(=S)[nH]c2ccc([N+](=O)[O-])cc21	52
Cn1c(=S)[nH]c2ccc(N)cc21	67
Cn1c(=S)[nH]c2cccc(NC(=O)c3ccccc3)c21	47
O=C(Cc1cccnc1)Nc1ccc2[nH]c(=S)oc2c1	50
Cc1ccc2oc(=S)[nH]c2c1	99
O=[N+]([O-])c1ccc2nc(S)sc2c1	69
O=C(CCl)Nc1nc2ccccc2s1	73

target: T2, Proteasome subunit beta type-8 (Homo sapiens); test: Inhibition of human chymotrypsin-like beta 5i subunit of iCP assessed as residual activity using suc-LLVY-AMC as flurogenic substrate at 10 uM for 90 mins by fluorescence-based assay

Structure (SMILES)	Activity [%]
Cc1ccc2[nH]c(=S)[nH]c2c1	95
CCOc1ccc2[nH]c(S)nc2c1	80
Nc1ccc2[nH]c(S)nc2c1	49
COc1ccc2[nH]c(S)nc2c1	97
CC(=O)Nc1ccc2[nH]c(=S)[nH]c2c1	57
Cc1cccc2[nH]c(=S)[nH]c12	84

system: not listed separately; test: Glutathione reactivity of compound at pH 7.5 measured by HPLC-MS assay; assay type: physicochemical

Structure (SMILES)	Drug metabolism
Sc1nc2cc(Cl)ccc2o1	Metabolite_Notdetected
Sc1nc2cc(Cl)ccc2[nH]1	Metabolite_Notdetected
S=c1[nH]c2cccc(Cl)c2o1	Metabolite_Notdetected
Cn1c(=S)[nH]c2cccc(Cl)c21	Metabolite_Notdetected
S=c1[nH]c2cccc(Cl)c2s1	Metabolite_Notdetected
S=c1[nH]c2c(Cl)cccc2s1	Metabolite_Notdetected
O=[N+]([O-])c1ccc2oc(=S)[nH]c2c1	Metabolite_Notdetected
O=[N+]([O-])c1ccc2sc(=S)[nH]c2c1	Metabolite_Notdetected
Cn1c(S)nc2ccc(Cl)cc21	Metabolite_Notdetected
O=[N+]([O-])c1ccc2nc(S)sc2c1	Metabolite_Notdetected
S=c1[nH]c2ccc(Cl)cc2o1	Metabolite_Notdetected

system: not listed separately; test: Glutathione reactivity of compound at pH 8 measured by HPLC-MS assay; assay type: physicochemical

Structure (SMILES)	Drug metabolism
Sc1nc2cc(Cl)ccc2o1	Metabolite_Notdetected
Sc1nc2cc(Cl)ccc2[nH]1	Metabolite_Notdetected
S=c1[nH]c2cccc(Cl)c2o1	Metabolite_Notdetected
Cn1c(=S)[nH]c2cccc(Cl)c21	Metabolite_Notdetected
S=c1[nH]c2cccc(Cl)c2s1	Metabolite_Notdetected
S=c1[nH]c2c(Cl)cccc2s1	Metabolite_Notdetected
O=[N+]([O-])c1ccc2oc(=S)[nH]c2c1	Metabolite_Notdetected
O=[N+]([O-])c1ccc2sc(=S)[nH]c2c1	Metabolite_Notdetected
Cn1c(S)nc2ccc(Cl)cc21	Metabolite_Notdetected
O=[N+]([O-])c1ccc2nc(S)sc2c1	Metabolite_Notdetected
S=c1[nH]c2ccc(Cl)cc2o1	Metabolite_Notdetected

system: not listed separately; test: Glutathione reactivity of compound at pH 8.5 measured by HPLC-MS assay; assay type: physicochemical

Structure (SMILES)	Drug metabolism
Sc1nc2cc(Cl)ccc2o1	Metabolite_Notdetected
Sc1nc2cc(Cl)ccc2[nH]1	Metabolite_Notdetected
S=c1[nH]c2cccc(Cl)c2o1	Metabolite_Notdetected
Cn1c(=S)[nH]c2cccc(Cl)c21	Metabolite_Notdetected
S=c1[nH]c2cccc(Cl)c2s1	Metabolite_Notdetected
S=c1[nH]c2c(Cl)cccc2s1	Metabolite_Notdetected
O=[N+]([O-])c1ccc2oc(=S)[nH]c2c1	Metabolite_Notdetected
O=[N+]([O-])c1ccc2sc(=S)[nH]c2c1	Metabolite_Notdetected
Cn1c(S)nc2ccc(Cl)cc21	Metabolite_Notdetected
O=[N+]([O-])c1ccc2nc(S)sc2c1	Metabolite_Notdetected
S=c1[nH]c2ccc(Cl)cc2o1	Metabolite_Notdetected

system: not listed separately; test: Glutathione reactivity of compound at pH 9 measured by HPLC-MS assay; assay type: physicochemical

Structure (SMILES)	Drug metabolism
Sc1nc2cc(Cl)ccc2o1	Metabolite_Notdetected
Sc1nc2cc(Cl)ccc2[nH]1	Metabolite_Notdetected
S=c1[nH]c2cccc(Cl)c2o1	Metabolite_Notdetected
Cn1c(=S)[nH]c2cccc(Cl)c21	Metabolite_Notdetected
S=c1[nH]c2cccc(Cl)c2s1	Metabolite_Notdetected
S=c1[nH]c2c(Cl)cccc2s1	Metabolite_Notdetected
O=[N+]([O-])c1ccc2oc(=S)[nH]c2c1	Metabolite_Notdetected
O=[N+]([O-])c1ccc2sc(=S)[nH]c2c1	Metabolite_Notdetected
Cn1c(S)nc2ccc(Cl)cc21	Metabolite_Notdetected
O=[N+]([O-])c1ccc2nc(S)sc2c1	Metabolite_Notdetected
S=c1[nH]c2ccc(Cl)cc2o1	Metabolite_Notdetected

target: T3, Proteasome Macropain subunit MB1 (Homo sapiens, UniProt P28074); test: Inhibition of beta 5 chymotrypsin-like activity (unknown origin) using Suc-LLVY-AMC as substrate for 90 mins by fluorescence based assay
T3 sequence (P28074 whole entry): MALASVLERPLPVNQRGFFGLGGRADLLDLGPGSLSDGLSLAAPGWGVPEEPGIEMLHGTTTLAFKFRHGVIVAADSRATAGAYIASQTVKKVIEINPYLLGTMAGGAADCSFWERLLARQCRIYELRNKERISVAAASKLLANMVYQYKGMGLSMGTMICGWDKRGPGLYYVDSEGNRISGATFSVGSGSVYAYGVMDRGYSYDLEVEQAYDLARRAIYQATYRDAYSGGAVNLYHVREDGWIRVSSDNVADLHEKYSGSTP

Structure (SMILES)	IC50 [µM]
N#Cc1nc2cccc(Cl)c2o1	93

target: T4, Proteasome Macropain subunit MB1 (Homo sapiens) (UniProt P28074); test: Inhibition of beta 5 chymotrypsin-like activity (unknown origin) at 100 uM using Suc-LLVY-AMC as substrate for 90 mins by fluorescence based assay; set-up: scale not given: the % may be the effect or the level left
T4 sequence (whole entry): T3 sequence (P28074 whole entry)

Structure (SMILES)	Activity [%]
S=c1[nH]c2cccc(Br)c2s1	84
N#Cc1nc2cccc(Cl)c2s1	72
N#Cc1nc2cccc(Cl)c2[nH]1	82
Sc1nc2ccccc2s1 [2-MERCAPTOBENZOTHIAZOLE]	85
Cc1ccc2[nH]c(=S)oc2c1	92
Oc1cccc2oc(S)nc12	87
CCOc1ccc2[nH]c(S)nc2c1	95
N#Cc1nc2ccc(Cl)cc2[nH]1	71
Cn1c(S)nc2ccccc21	91
Cn1c(C#N)nc2cccc(Cl)c21	89
Sc1nc2cc(Cl)ccc2[nH]1	98
S=c1[nH]c2cccc(Cl)c2o1	94
Cn1c(=S)[nH]c2cccc(Cl)c21	99
S=c1[nH]c2cccc(Cl)c2s1	59
Cn1c(S)nc2ccc(Cl)cc21	94
Sc1nc2ccccc2[nH]1 [2-MERCAPTOBENZIMIDAZOLE]	100
Sc1nc2ccccc2o1	116
N#Cc1nc2ccccc2o1	82
N#Cc1nc2cc(Cl)ccc2o1	101

target: T2, Proteasome subunit beta type-8 (Homo sapiens); test: Inhibition of human chymotrypsin-like beta 5i subunit of iCP assessed as residual activity using suc-LLVY-AMC as flurogenic substrate at 150 uM for 90 mins by fluorescence-based assay

Structure (SMILES)	Activity [%]
Cn1c(=S)[nH]c2c(Cl)cccc21	50

system: not listed separately; test: Thiol reactivity of the compound assessed as TNB2-depletion at 200 uM measured upto 24 hrs by TNB2-depletion assay; assay type: physicochemical

Structure (SMILES)	Drug metabolism
S=c1[nH]c2cccc(Br)c2s1	Metabolite_Detected
Sc1nc2ccccc2s1 [2-MERCAPTOBENZOTHIAZOLE]	Metabolite_Detected
Cc1ccc2[nH]c(=S)oc2c1	Metabolite_Detected
Oc1cccc2oc(S)nc12	Metabolite_Detected
CCOc1ccc2[nH]c(S)nc2c1	Metabolite_Notdetected
Cn1c(S)nc2ccccc21	Metabolite_Notdetected
Sc1nc2cc(Cl)ccc2[nH]1	Metabolite_Notdetected
S=c1[nH]c2cccc(Cl)c2o1	Metabolite_Detected
Cn1c(=S)[nH]c2cccc(Cl)c21	Metabolite_Detected
S=c1[nH]c2cccc(Cl)c2s1	Metabolite_Detected
Cn1c(S)nc2ccc(Cl)cc21	Metabolite_Detected
Sc1nc2ccccc2[nH]1 [2-MERCAPTOBENZIMIDAZOLE]	Metabolite_Notdetected
Sc1nc2ccccc2o1	Metabolite_Detected
